The source of these data is patent publication US4775684A, “1,3-dioxane ethers” (Imperial Chemical Industries PLC, priority 1985, dated 1988).

For one test, the target named is T1, rat aortal strip (Rattus norvegicus, UniProt P34978).
T1 construct: rat aortal strip model; from tissue; host or cells: rat aorta strip
T1 sequence (P34978 1-341): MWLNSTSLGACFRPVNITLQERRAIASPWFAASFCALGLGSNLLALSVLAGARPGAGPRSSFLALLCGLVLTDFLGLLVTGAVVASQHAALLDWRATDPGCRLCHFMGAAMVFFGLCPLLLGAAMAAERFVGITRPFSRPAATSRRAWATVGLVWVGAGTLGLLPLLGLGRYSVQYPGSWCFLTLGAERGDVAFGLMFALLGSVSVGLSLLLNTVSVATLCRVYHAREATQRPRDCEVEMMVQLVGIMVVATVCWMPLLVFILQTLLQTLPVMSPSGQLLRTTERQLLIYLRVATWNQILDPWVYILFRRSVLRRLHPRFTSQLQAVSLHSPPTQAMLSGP
The test is described as follows: rat aortal strip model (procedure (a)), agonist U46619. The class given is cell-based. As to conditions: read-out: pA2 (converted). The text has this:
As stated earlier, the compounds of formula I are antagonists of one or more of the actions of TXA2, for example certain of its actions on blood platelets, the vasculature and/or the lung.
(a) The rabbit aortal strip model devised by Piper and Vane (Nature, 1969, 223, 29-35) or the rat aortal strip model developed by Kennedy et alia (Prostaglandins, 1982, 24, 667-689), using as agonist the TXA2 mimtic agent known as U46619 (described by R. L. Jones et alia, in "Chemistry, Biochemistry and Pharmacological Activity of Prostanoids" edited by S. M. Roberts and F. Scheinmann, at page 211, Pergamon Press, 1979);

The target of test [1] is T2, U46619 stimulated platelet aggregation (Homo sapiens, UniProt P21731).
T2 construct: human, citrated platelet-rich plasma; endogenous in cells; host or cells: human platelets in citrated platelet-rich plasma
T2 sequence (P21731 1-343): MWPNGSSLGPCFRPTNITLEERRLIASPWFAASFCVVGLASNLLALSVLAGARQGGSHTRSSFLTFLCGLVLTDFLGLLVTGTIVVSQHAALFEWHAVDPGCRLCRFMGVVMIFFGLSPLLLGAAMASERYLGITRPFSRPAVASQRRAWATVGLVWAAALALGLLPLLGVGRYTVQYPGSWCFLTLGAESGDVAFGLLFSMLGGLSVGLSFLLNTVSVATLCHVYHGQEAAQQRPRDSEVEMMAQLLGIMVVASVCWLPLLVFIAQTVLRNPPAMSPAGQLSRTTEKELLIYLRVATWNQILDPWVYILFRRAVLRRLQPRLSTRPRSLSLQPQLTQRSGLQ
The test is described as follows: blood platelet aggregation test (procedure (b)), U46619 stimulated aggregation of human citrated platelet-rich plasma. The settings on record: U46619, averaged over several concentrations. Format: cell-based. The text has this:
(b) a blood platelet aggregation test based on that described by Born (Nature, 1962, 194, 927-929) and involving:
(i) aggregating human, citrated platelet-rich plasma by addition of the TXA2 mimetic agent U46619 so that a dose-response curve is generated;
(ii) generating a dose-response curve for U46619 stimulated platelet aggregation in the presence of increasing amounts of test compound (generally in the range, 10^-5 M to 10^-10 M); and
(iii) calculating a KB value indicating potency of TXA2 antagonism for the test compound, averaged over several concentrations, from the calculated 50% response value for U46619 aggregation in the presence and absence of test compound; and […]

Molecules are shown by their SMILES.

Consider `CC(C)(Oc1ccccc1)[C@@H]1OC[C@H](C/C=C\CCC(=O)O)[C@H](c2ccccc2O)O1` (relative stereo) [Example 6, 4(Z)-6-([2,4,5-cis]-2-[1-methyl-1-phenoxyethyl]-4-o-hydroxyphenyl-1,3-dioxan-5-yl)hexenoic acid], for which the Kb was 0.195 nM on rat aortal strip and 17.5 nM in test [1].
